Entries after “also recorded” stand apart in the source; their conditions may differ.
How the values were obtained:
[1] = system: MOG35-55–antigen specific T-cells; assay: In-vitro T-cell proliferative response (H3-thymidine incorporation); assay type: cell-based, mouse (C57Bl/6J); conditions: peptide at 10μM; for inhibition of T-cell proliferation, activation by PMA and Ionomycin: 50ng/mL PMA with 1μM ionomycin; for inhibition of T-cell proliferation, activation by antibodies against CD3 and CD28: CD3 and CD28 antibodies 2μg/ml; for inhibition of T-cell proliferation, activation by MOG35-55 presenting APCs: irradiated MOG35-55 presenting APCs, mean inhibition of proliferation
[2] = system: MOG35-55–antigen specific T-cells; assay: T-bet and Gata3 expression detected by FACS; assay type: cell-based, mouse (C57Bl/6J); conditions: peptide at 10μM, APC activation, n = 3
Description: (A-B) MOG35-55–antigen specific T-cells were activated by irradiated MOG35-55 presenting APCs, in the presence of the HTLV FP at 10μM. Total RNA was isolated 24 hours following activation and mRNA expression levels were determined by qRT-PCR. The values of each gene were normalized to Rpl13a as a housekeeping control. The HTLV FP reduces TBX21 (T-bet) mRNA expression and elevates GATA3 mRNA expression. The data is presented as arbitrary units. n≥3. (C-H) MOG35-55–antigen specific T-cells were activated by irradiated MOG35-55 presenting APCs, in the presence of either HTLV or HIV FP at 10μM. Samples were fixed in 4% PFA and stained with anti T-bet-APC and anti Gata3-FITC antibodies (C-D) 24, (E-F) 48 and (G-H) 72 hours following activation. Each time point is represented as cell count vs. APC or FITC fluorescence histogram. Analysis was performed using LSR-II flow cytometer (BD) and FlowJo cell analysis software (FlowJo, LLC). The HTLV FP reduces T-bet expression and elevates Gata3 expression. n = 3. One-way ANOVA was used for statistical analysis. ns, not significant; *P<0.05;** P<0.01.
Antigen-specific T-cells were plated onto round 12-well plates (10^6 cells/ well) and activated with 5x10^5 irradiated (25 gray) APC and 5μg/ml of MOG p35-55 in the presence or absence of relevant peptides. Cells were washed with PBS, blocked (5% Donkey serum, 2% BSA and 0.1% Triton in PBS) and fixed with 4% Paraformaldehyde (PFA) 24 hour following activation. Cells were then stained with Gata3-FITC and T-bet-APC fluorochrome-labeled monoclonal mouse antibodies (purchased from Miltenyi Biotec) according to Miltenyi Biotec protocols. Samples were then collected using LSR-II flow cytometer and analyzed with FlowJo cell analysis software.

[3] = Circular dichroism spectroscopy with CDNN secondary structure analysis; assay type: physicochemical; conditions: 25μM peptide in 5mM HEPES buffer with 1% LPC; for Antiparallel β-Sheet / Parallel β-Sheet / Random-coil / α-Helix / β-turn: CD 190–260 nm, CDNN, relative amount of structure out of 100%; for secondary structure in a membrane mimetic environment: CD
Description: Fig 6 Detection of the immune modulatory region within the HTLV FP. (A) Sequences of shorter peptides derived from the full length HTLV FP. (B) MOG35-55–antigen specific T-cells were activated by APCs in the presence of HTLV FP derived peptides at 10μM and proliferative responses were assessed as described above. […] The data is presented as mean inhibition of proliferation. n = 12. (C) MOG35-55–antigen specific T cells were activated by either (i) irradiated MOG35-55 presenting APCs (black), (ii) antibodies against CD3 and CD28 (white), or (iii) PMA and Ionomycin (gray) in the presence of HTLV FP5-13 and HIV FP5-13 at 10μM. Proliferative responses were assessed as described above. The HTLV FP inhibits T-cell proliferation induced either through the TCR or downstream from the TCR with equal potencies. The data is presented as mean inhibition of proliferation. n = 12. […] CD spectra were measured at 25μM in 5mM HEPES buffer containing 1% lyso-phosphatidylcholine (LPC). […] (E) MOG35-55–antigen specific T-cells were activated by APCs in the presence of HTLV FP5-13 D/L enantiomers at 10μM and proliferative responses were assessed as described above. Both HTLV FP5-13 enantiomers inhibit T-cells proliferation with equal potencies. The data is presented as mean inhibition of proliferation. n = 12. One-way ANOVA was used for statistical analysis. *P<0.05;**P<0.01;***P<0.001.

Sequence	inhibition of T-cell proliferation, activation by PMA and Ionomycin ([1]; n = 12)	inhibition of T-cell proliferation, activation by antibodies against CD3 and CD28 ([1]; n = 12)	inhibition of T-cell proliferation, activation by MOG35-55 presenting APCs ([1]; n = 12)	Antiparallel β-Sheet [3] [%]	Parallel β-Sheet [3] [%]	Random-coil [3] [%]	α-Helix [3] [%]	β-turn [3] [%]	secondary structure in a membrane mimetic environment [3]	also measured
AVGIGALFLGFLGAAGSTMGARSMTLTVQARQL [HIV FP, HIV-1 gp41 fusion peptide, HXB2 isolate, reference compound]	decreased significantly when activation was downstream of TCRα and β	decreased significantly when activation was downstream of TCRα and β	inhibits T-cell proliferation with the same potency as the HIV FP							Gata3 expression (protein), 24 hours ([2]; 24 hours following activation): had no effect on Gata3 expression; T-bet expression (protein), 24 hours ([2]; 24 hours following activation): had no effect on T-bet expression; Gata3 expression (protein), 48 hours ([2]; 48 hours following activation): had no effect on Gata3 expression; T-bet expression (protein), 48 hours ([2]; 48 hours following activation): had no effect on T-bet expression; Gata3 expression (protein), 72 hours ([2]; 72 hours following activation): had no effect on Gata3 expression
GALFLGFLG [HIV FP5-13, reference compound]	significantly diminished when T-cells were activated using CD3 and CD28 antibodies or PMA and Ionomycin	significantly diminished when T-cells were activated using CD3 and CD28 antibodies or PMA and Ionomycin								
AVGMVIFLLVLAIMAMTASVTAAATLVKQHATA [JDV FP, Jembrana disease virus fusion peptide, Tabanan/87 isolate]			showed no inhibitory activity							
VSALAMGAGVAGGI [HTLV FP9-22, segment 9-22 of the HTLV FP]			higher potency than HTLV FP9-22 and HTLV FP14-22	30.4	11.7	32.6	8.5	16.8	found to be random coils	
MGAGVAGGI [HTLV FP14-22, segment 14-22 of the HTLV FP]			higher potency than HTLV FP9-22 and HTLV FP14-22	27.7	11.7	32.5	11.2	17.1	found to be random coils	
AVWLVSALA [HTLV FP5-13, segment 5-13 of the HTLV FP]	inhibited all three levels of activation	inhibited all three levels of activation		6.7	5.2	17.3	54	16.8	exhibited an α-helical structure	inhibition of T-cell proliferation, activation by MOG35-55 presenting APCs ([1]; n = 12, 10 µM): inhibited all three levels of activation; also recorded: inhibit T-cell proliferation with higher potency than HTLV FP9-22 and HTLV FP14-22; also recorded: inhibited T-cell proliferation with the same potency
VAALTLGLALSVGLTGINVAVSALSHQRLTSLI [BLV FP, bovine leukemia virus fusion peptide, Japanese isolate of BLV-1]			significantly stronger than the BLV FP							
